pIC50: −log10 of the molar value. ≈ marks a conversion by molar mass, not a printed value.
Tests used:
[1] = Inhibition of Escherichia coli RNA polymerase
HepG2 = assay: Cytotoxicity against human HepG2 cells assessed as reduction in cell viability by MTT assay; format: cell-based
Staphylococcus aureus [2] = assay: Antibacterial activity against vancomycin-resistant Staphylococcus aureus assessed as bacterial growth inhibition; format: functional
Staphylococcus aureus [3] = assay: Antibacterial activity against methicillin-resistant Staphylococcus aureus assessed as bacterial growth inhibition; format: functional
Staphylococcus aureus [4] = assay: Antibacterial activity against rifampicin-resistant Staphylococcus aureus assessed as bacterial growth inhibition; format: functional
Candida albicans = assay: Antifungal activity against Candida albicans ATCC 10231 assessed as fungal growth inhibition; format: functional
Pseudomonas aeruginosa = assay: Antibacterial activity against Pseudomonas aeruginosa ATCC 27853 assessed as bacterial growth inhibition; format: functional
Escherichia coli [5] = assay: Antibacterial activity against Escherichia coli ATCC 25922 assessed as bacterial growth inhibition; format: functional
Enterococcus faecalis = assay: Antibacterial activity against Enterococcus faecalis ATCC 29212 assessed as bacterial growth inhibition; format: functional
Bacillus subtilis = assay: Antibacterial activity against Bacillus subtilis ATCC 6633 assessed as bacterial growth inhibition; format: functional
Staphylococcus aureus [6] = assay: Antibacterial activity against Staphylococcus aureus ATCC 29213 assessed as bacterial growth inhibition; format: functional
Escherichia coli [7] = assay: Inhibition of Escherichia coli RNA polymerase at 200 uM relative to control
[8] = Inhibition of recombinant Escherichia coli RNA polymerase

SMILES: COc1ccc(-n2c3cssc-3c(NC(=O)OCCOC(=O)CCCCC(=O)c3c(O)cc(C)oc3=O)c2=O)c(OC)c1
- pIC50 [1]: 4.18
- pIC50 (HepG2): 5.03
- MIC (Staphylococcus aureus [2]): 2 to 4 µg/mL (≈ 3.16 to 6.32 µM)
- MIC (Staphylococcus aureus [3]): 1 to 2 µg/mL (≈ 1.58 to 3.16 µM)
- MIC (Staphylococcus aureus [4]): 2 to 4 µg/mL (≈ 3.16 to 6.32 µM)
- MIC (Candida albicans): > 128 µg/mL
- MIC (Pseudomonas aeruginosa): > 128 µg/mL
- MIC (Escherichia coli [5]): > 128 µg/mL
- MIC (Enterococcus faecalis): 16 µg/mL (≈ 25.3 µM)
- MIC (Bacillus subtilis): 32 µg/mL (≈ 50.6 µM)
- MIC (Staphylococcus aureus [6]): 2 µg/mL (≈ 3.16 µM)

SMILES: COc1ccc(-n2c3cssc-3c(NC(=O)N(C)CCOC(=O)CCCCC(=O)c3c(O)cc(C)oc3=O)c2=O)c(OC)c1
- pIC50 [1]: 4.34
- pIC50 (HepG2): 5.56
- MIC (Staphylococcus aureus [2]): 4 to 8 µg/mL (≈ 6.19 to 12.4 µM)
- MIC (Staphylococcus aureus [3]): 1 to 2 µg/mL (≈ 1.55 to 3.1 µM)
- MIC (Staphylococcus aureus [4]): 1 to 2 µg/mL (≈ 1.55 to 3.1 µM)
- MIC (Candida albicans): > 128 µg/mL
- MIC (Pseudomonas aeruginosa): > 128 µg/mL
- MIC (Escherichia coli [5]): > 128 µg/mL
- MIC (Enterococcus faecalis): 16 µg/mL (≈ 24.8 µM)
- MIC (Bacillus subtilis): 32 µg/mL (≈ 49.6 µM)
- MIC (Staphylococcus aureus [6]): 2 µg/mL (≈ 3.1 µM)

SMILES: COc1ccc(-n2c3cssc-3c(NC(=O)OCCOC(=O)CCCCCCC(=O)c3c(O)cc(C)oc3=O)c2=O)c(OC)c1
- pIC50 [1]: 4.79
- pIC50 (HepG2): 5.15
- MIC (Staphylococcus aureus [2]): 2 to 4 µg/mL (≈ 3.03 to 6.05 µM)
- MIC (Staphylococcus aureus [3]): 1 to 2 µg/mL (≈ 1.51 to 3.03 µM)
- MIC (Staphylococcus aureus [4]): 1 to 2 µg/mL (≈ 1.51 to 3.03 µM)
- MIC (Candida albicans): > 128 µg/mL
- MIC (Pseudomonas aeruginosa): > 128 µg/mL
- MIC (Escherichia coli [5]): > 128 µg/mL
- MIC (Enterococcus faecalis): 2 µg/mL (≈ 3.03 µM)
- MIC (Bacillus subtilis): 32 µg/mL (≈ 48.4 µM)
- MIC (Staphylococcus aureus [6]): 1 µg/mL (≈ 1.51 µM)

SMILES: COc1ccc(-n2c3cssc-3c(NC(=O)CCCCC(=O)c3c(O)cc(C)oc3=O)c2=O)c(OC)c1
- inhibition (Escherichia coli [7]): 42.4%
- MIC (Candida albicans): > 128 µg/mL
- MIC (Pseudomonas aeruginosa): > 128 µg/mL
- MIC (Escherichia coli [5]): > 128 µg/mL
- MIC (Enterococcus faecalis): 64 µg/mL (≈ 118 µM)
- MIC (Bacillus subtilis): 16 µg/mL (≈ 29.4 µM)
- MIC (Staphylococcus aureus [6]): 2 µg/mL (≈ 3.67 µM)

SMILES: COc1ccc(-n2c3cssc-3c(NC(=O)NCCOC(=O)CCCCCCC(=O)c3c(O)cc(C)oc3=O)c2=O)c(OC)c1
- pIC50 [1]: 4.25
- MIC (Candida albicans): > 128 µg/mL
- MIC (Pseudomonas aeruginosa): > 128 µg/mL
- MIC (Escherichia coli [5]): > 128 µg/mL
- MIC (Enterococcus faecalis): 32 µg/mL (≈ 48.5 µM)
- MIC (Bacillus subtilis): 128 µg/mL (≈ 194 µM)
- MIC (Staphylococcus aureus [6]): 128 µg/mL (≈ 194 µM)

SMILES: CO[C@H]1/C=C/O[C@@]2(C)Oc3c(C)c(O)c4c(O)c(c(/C=N/N5CCN(C)CC5)c(O)c4c3C2=O)NC(=O)/C(C)=C\C=C\[C@H](C)[C@H](O)[C@@H](C)[C@@H](O)[C@@H](C)[C@H](OC(C)=O)[C@@H]1C [RIFAMPIN]
- pIC50 [1]: 6.85
- pIC50 (HepG2): 3.84
- MIC (Staphylococcus aureus [2]): 0.0625 to 0.125 µg/mL (≈ 0.0759 to 0.152 µM)
- MIC (Staphylococcus aureus [3]): 0.125 to 0.25 µg/mL (≈ 0.152 to 0.304 µM)
- MIC (Staphylococcus aureus [4]): > 64 µg/mL
- MIC (Candida albicans): > 64 µg/mL
- MIC (Pseudomonas aeruginosa): > 64 µg/mL
- MIC (Escherichia coli [5]): 8 µg/mL (≈ 9.72 µM)
- MIC (Enterococcus faecalis): 0.5 µg/mL (≈ 0.608 µM)
- MIC (Bacillus subtilis): 0.125 µg/mL (≈ 0.152 µM)
- MIC (Staphylococcus aureus [6]): 0.5 µg/mL (≈ 0.608 µM)

SMILES: CCC/C(C)=C/C=C(\C)C(=O)c1c(O)cc([C@H](C)CC/C=C/NC(=O)OC)oc1=O [MYXOPORIN A]
- pIC50 [8]: 4.62

SMILES: COc1ccc(-n2c3cssc-3c(NC(=O)CCCCCCC(=O)c3c(O)cc(C)oc3=O)c2=O)c(OC)c1
- inhibition (Escherichia coli [7]): 43.4%
- MIC (Candida albicans): > 128 µg/mL
- MIC (Pseudomonas aeruginosa): > 128 µg/mL
- MIC (Escherichia coli [5]): > 128 µg/mL
- MIC (Enterococcus faecalis): > 128 µg/mL
- MIC (Bacillus subtilis): 32 µg/mL (≈ 55.9 µM)
- MIC (Staphylococcus aureus [6]): 64 µg/mL (≈ 112 µM)

SMILES: COc1ccc(-n2c3cssc-3c(NC(=O)NCCOC(=O)CCCC(=O)c3c(O)cc(C)oc3=O)c2=O)c(OC)c1
- inhibition (Escherichia coli [7]): 25.3%
- MIC (Candida albicans): > 128 µg/mL
- MIC (Pseudomonas aeruginosa): > 128 µg/mL
- MIC (Escherichia coli [5]): > 64 µg/mL
- MIC (Enterococcus faecalis): 4 µg/mL (≈ 6.48 µM)
- MIC (Bacillus subtilis): 32 µg/mL (≈ 51.8 µM)
- MIC (Staphylococcus aureus [6]): 32 µg/mL (≈ 51.8 µM)

SMILES: COc1ccc(-n2c3cssc-3c(NC(=O)N(C)CCOC(=O)CCCCCCC(=O)c3c(O)cc(C)oc3=O)c2=O)c(OC)c1
- inhibition (Escherichia coli [7]): 32.1%
- MIC (Candida albicans): > 128 µg/mL
- MIC (Pseudomonas aeruginosa): > 128 µg/mL
- MIC (Escherichia coli [5]): > 64 µg/mL
- MIC (Enterococcus faecalis): 8 µg/mL (≈ 11.9 µM)
- MIC (Bacillus subtilis): 32 µg/mL (≈ 47.5 µM)
- MIC (Staphylococcus aureus [6]): 16 µg/mL (≈ 23.7 µM)

SMILES: COc1ccc(-n2c3cssc-3c(NC(=O)N(C)CCOC(=O)CCCC(=O)c3c(O)cc(C)oc3=O)c2=O)c(OC)c1
- inhibition (Escherichia coli [7]): 23.8%
- pIC50 (HepG2): 5.27
- MIC (Staphylococcus aureus [2]): 2 to 4 µg/mL (≈ 3.17 to 6.33 µM)
- MIC (Staphylococcus aureus [3]): 1 to 2 µg/mL (≈ 1.58 to 3.17 µM)
- MIC (Staphylococcus aureus [4]): 2 to 4 µg/mL (≈ 3.17 to 6.33 µM)
- MIC (Candida albicans): > 128 µg/mL
- MIC (Pseudomonas aeruginosa): > 128 µg/mL
- MIC (Escherichia coli [5]): > 128 µg/mL
- MIC (Enterococcus faecalis): 2 µg/mL (≈ 3.17 µM)
- MIC (Bacillus subtilis): 32 µg/mL (≈ 50.7 µM)
- MIC (Staphylococcus aureus [6]): 2 µg/mL (≈ 3.17 µM)

SMILES: CN[C@H](CC(C)C)C(=O)N[C@H]1C(=O)N[C@@H](CC(N)=O)C(=O)N[C@H]2C(=O)N[C@H]3C(=O)N[C@H](C(=O)N[C@H](C(=O)O)c4cc(O)cc(O)c4-c4cc3ccc4O)[C@H](O)c3ccc(c(Cl)c3)Oc3cc2cc(c3O[C@@H]2O[C@H](CO)[C@@H](O)[C@H](O)[C@H]2O[C@H]2C[C@](C)(N)[C@H](O)[C@H](C)O2)Oc2ccc(cc2Cl)[C@H]1O [VANCOMYCIN]
- MIC (Staphylococcus aureus [2]): > 64 µg/mL
- MIC (Staphylococcus aureus [3]): 1 to 2 µg/mL (≈ 0.69 to 1.38 µM)
- MIC (Staphylococcus aureus [4]): 1 to 2 µg/mL (≈ 0.69 to 1.38 µM)
- MIC (Escherichia coli [5]): > 128 µg/mL
- MIC (Bacillus subtilis): 1 µg/mL (≈ 0.69 µM)

SMILES: COc1ccc(-n2c3cssc-3c(NC(=O)OCCOC(=O)CCCC(=O)c3c(O)cc(C)oc3=O)c2=O)c(OC)c1
- inhibition (Escherichia coli [7]): 41.3%
- pIC50 (HepG2): 5.71
- MIC (Staphylococcus aureus [2]): 4 to 8 µg/mL (≈ 6.47 to 12.9 µM)
- MIC (Staphylococcus aureus [3]): 1 to 2 µg/mL (≈ 1.62 to 3.23 µM)
- MIC (Staphylococcus aureus [4]): 1 to 2 µg/mL (≈ 1.62 to 3.23 µM)
- MIC (Candida albicans): > 128 µg/mL
- MIC (Pseudomonas aeruginosa): > 128 µg/mL
- MIC (Escherichia coli [5]): > 128 µg/mL
- MIC (Enterococcus faecalis): 4 µg/mL (≈ 6.47 µM)
- MIC (Bacillus subtilis): 32 µg/mL (≈ 51.7 µM)
- MIC (Staphylococcus aureus [6]): 1 µg/mL (≈ 1.62 µM)

SMILES: COc1ccc(-n2c3cssc-3c(NC(=O)NCCOC(=O)CCCCC(=O)c3c(O)cc(C)oc3=O)c2=O)c(OC)c1
- inhibition (Escherichia coli [7]): 36.5%
- MIC (Candida albicans): > 128 µg/mL
- MIC (Pseudomonas aeruginosa): > 128 µg/mL
- MIC (Escherichia coli [5]): > 64 µg/mL
- MIC (Enterococcus faecalis): 16 µg/mL (≈ 25.3 µM)
- MIC (Bacillus subtilis): 128 µg/mL (≈ 203 µM)
- MIC (Staphylococcus aureus [6]): 4 µg/mL (≈ 6.33 µM)

SMILES: COc1ccc(-n2c3cssc-3c(NC(=O)CCCC(=O)c3c(O)cc(C)oc3=O)c2=O)c(OC)c1
- inhibition (Escherichia coli [7]): 35.4%
- pIC50 (HepG2): 4.54
- MIC (Staphylococcus aureus [2]): 4 to 8 µg/mL (≈ 7.54 to 15.1 µM)
- MIC (Staphylococcus aureus [3]): 1 to 2 µg/mL (≈ 1.88 to 3.77 µM)
- MIC (Staphylococcus aureus [4]): 2 to 4 µg/mL (≈ 3.77 to 7.54 µM)
- MIC (Candida albicans): > 128 µg/mL
- MIC (Pseudomonas aeruginosa): > 128 µg/mL
- MIC (Escherichia coli [5]): > 64 µg/mL
- MIC (Enterococcus faecalis): 16 µg/mL (≈ 30.2 µM)
- MIC (Bacillus subtilis): 32 µg/mL (≈ 60.3 µM)
- MIC (Staphylococcus aureus [6]): 2 µg/mL (≈ 3.77 µM)

SMILES: O=C(O)c1cn(C2CC2)c2cc(N3CCNCC3)c(F)cc2c1=O [CIPROFLOXACIN]
- MIC (Escherichia coli [5]): 0.00625 µg/mL (≈ 0.0189 µM)
- MIC (Enterococcus faecalis): 0.5 µg/mL (≈ 1.51 µM)
- MIC (Bacillus subtilis): 0.125 µg/mL (≈ 0.377 µM)
- MIC (Staphylococcus aureus [6]): 0.078 µg/mL (≈ 0.235 µM)
